Source: US20240391940A1, “FUSED RING-CONTAINING COMPOUND, APPLICATION THEREOF, AND COMPOSITION CONTAINING SAME” (GenEros Biopharma Ltd., priority 2020, published 2024)
“And” between values parts separate entries of the source, which are not always exact repeats. Equal entries are not always repeated. Where two headings read alike, the source gives them in different places.

Assays:
[1] = test system: collagen-induced arthritis (CIA) mouse model; assay: Mouse CIA model, repeated for dose exploration (10, 30, 50 mg/kg); conditions: for Significance of clinical score vs. Vehicle group (Two-way ANOVA): Tofacitinib BID; for Changes in body weight, Mean ± SEM / Clinical scores, Mean ± SEM / Clinical scores: significance vs. solvent control group, two-way ANOVA: G2 Tofacitinib 10 mg/kg
Text: Testing was repeated for dose exploration
The above method was used.

[2] = test system: collagen-induced arthritis (CIA) mouse model; conditions: CIA mice; for clinical score: Tofacitinib 10 mg/kg p.o. BID from day 28; for clinical score / body weight: Mean ± SEM; for body weight: Tofacitinib 10 mg/kg
[3] = test system: adjuvant arthritis (AIA) rat model; assay: Rat AIA (adjuvant arthritis) model; assay type: in vivo, Lewis rats; conditions: AIA rats, 10 mg/kg daily from day 9, individual animals, 10 mg/kg; for Hind paw volume: in mL (unit assumed)

Structure (SMILES): C[C@@H]1CCN(C(=O)CC#N)C[C@@H]1N(C)c1ncnc2[nH]ccc12 [Tofacitinib, reference compound]
- Significance of clinical score vs. Vehicle group (Two-way ANOVA) ([1]; CIA mice, Day 35): ** (**P < 0.01)
- Significance of clinical score vs. Vehicle group (Two-way ANOVA) ([1]; CIA mice, Day 38): *** (***P < 0.001)
- Significance of clinical score vs. Vehicle group (Two-way ANOVA) ([1]; CIA mice, Day 40): **** (****P < 0.0001)
- Significance of clinical score vs. Vehicle group (Two-way ANOVA) ([1]; CIA mice, Day 42): **** (****P < 0.0001)
- Effect on symptoms of arthritis and lesions in tissues ([1]; CIA mice, positive control tofacitinib): significant improving effect on the symptoms of arthritis and lesions in tissues
- Changes in body weight, Mean ± SEM ([1]; Day 21): 20.41 ± 0.27
- Clinical scores, Mean ± SEM ([1]; Day 21): 0.0 ± 0.00
- Changes in body weight, Mean ± SEM ([1]; Day 24): 19.69 ± 0.37
- Clinical scores, Mean ± SEM ([1]; Day 24): 0.0 ± 0.00
- Changes in body weight, Mean ± SEM ([1]; Day 26): 19.59 ± 0.36
- Clinical scores, Mean ± SEM ([1]; Day 26): 0.3 ± 0.16
- Changes in body weight, Mean ± SEM ([1]; Day 28): 19.25 ± 0.50
- Clinical scores, Mean ± SEM ([1]; Day 28): 0.6 ± 0.18
- Changes in body weight, Mean ± SEM ([1]; Day 31): 18.98 ± 0.53
- Clinical scores, Mean ± SEM ([1]; Day 31): 1.8 ± 0.37
- Changes in body weight, Mean ± SEM ([1]; Day 33): 19.14 ± 0.43
- Clinical scores, Mean ± SEM ([1]; Day 33): 3.1 ± 0.52
- Changes in body weight, Mean ± SEM ([1]; Day 35): 19.03 ± 0.46
- Clinical scores, Mean ± SEM ([1]; Day 35): 3.6 ± 0.56
- Clinical scores: significance vs. solvent control group, two-way ANOVA ([1]; Day 35): ** (** p < 0.01)
- Changes in body weight, Mean ± SEM ([1]; Day 38): 18.98 ± 0.45
- Clinical scores, Mean ± SEM ([1]; Day 38): 4.6 ± 0.75
- Clinical scores: significance vs. solvent control group, two-way ANOVA ([1]; Day 38): *** (*** p < 0.001)
- Changes in body weight, Mean ± SEM ([1]; Day 40): 19.56 ± 0.32
- Clinical scores, Mean ± SEM ([1]; Day 40): 5.1 ± 0.90
- Clinical scores: significance vs. solvent control group, two-way ANOVA ([1]; Day 40): **** (**** p <0.0001)
- Changes in body weight, Mean ± SEM ([1]; Day 42): 19.69 ± 0.40
- Clinical scores, Mean ± SEM ([1]; Day 42): 5.5 ± 0.87
- Clinical scores: significance vs. solvent control group, two-way ANOVA ([1]; Day 42): **** (**** p <0.0001)
- clinical score ([2]; day 21): 0.0 ± 0.00
- clinical score ([2]; day 25): 0.3 ± 0.16
- clinical score ([2]; day 28): 0.8 ± 0.31
- clinical score ([2]; day 29): 1.0 ± 0.42
- clinical score ([2]; day 32): 1.8 ± 0.49
- clinical score ([2]; day 34): 2.5 ± 0.65
- clinical score ([2]; day 36): 2.8 ± 0.75
- clinical score ([2]; day 39): 3.4 ± 0.80
- clinical score ([2]; day 41): 3.5 ± 0.87
- body weight ([2]; day 21): 20.39 ± 0.43
- body weight ([2]; day 25): 20.54 ± 0.45
- body weight ([2]; day 28): 20.63 ± 0.49
- body weight ([2]; day 29): 20.2 ± 0.44
- body weight ([2]; day 32): 19.91 ± 0.50
- body weight ([2]; day 34): 20.39 ± 0.44
- body weight ([2]; day 36): 20.26 ± 0.43
- body weight ([2]; day 39): 20.31 ± 0.34
- body weight ([2]; day 41): 21.04 ± 0.44
- Effect on symptoms of arthritis and lesions in tissues ([2]; positive control tofacitinib): significant improving effect on the symptoms of arthritis and lesions in tissues
- Joint histopathology (H&E staining) ([2]; tofacitinib 10 mg/kg): no significant lesions in joint tissues
- Day on which significant inhibition of the score of arthritis began ([2]; tofacitinib 10 mg/kg BID): 34 days
- body weight ([3]; day 9): 167 g (2×) and 156 g and 146 g and 168 g and 151 g and 154 g and 161 g
- clinical scores ([3]; day 9): 1 and 0 (7×)
- Hind paw volume ([3]; day 9): 2.1 and 1.42 and 1.4 and 1.35 and 1.24 and 1.1
- body weight ([3]; day 10): 165 g and 153 g and 142 g and 168 g and 150 g and 152 g and 160 g and 166 g
- body weight ([3]; day 11): 162 g and 154 g and 140 g and 166 g and 145 g and 151 g and 158 g and 167 g
- clinical scores ([3]; day 11): 1.5 and 0.5 (4×) and 0 (2×) and 0.25
- Hind paw volume ([3]; day 11): 2 and 1.23 and 1.03 and 1.53 and 1.02 and 1.46 and 1.01
- body weight ([3]; day 12): 155 g (2×) and 149 g (2×) and 136 g and 159 g and 145 g and 168 g
- body weight ([3]; day 13): 154 g (2×) and 148 g and 136 g and 157 g and 140 g and 167 g and 150 g
- clinical scores ([3]; day 13): 3.3 and 1 (3×) and 1.5 and 0.5 and 1.2 and 0.7
- Hind paw volume ([3]; day 13): 2.59 and 1.92 and 1.72 and 1.16 and 1.39 and 1.11 and 1.83 and 1.47
- body weight ([3]; day 14): 151 g and 144 g and 135 g and 154 g and 140 g and 147 g and 153 g and 164 g
- body weight ([3]; day 15): 150 g and 145 g and 134 g and 152 g and 139 g and 146 g and 151 g and 162 g
- clinical scores ([3]; day 15): 3.5 and 3 and 2 (2×) and 1.5 and 2.5 and 0.8 and 0.7
- Hind paw volume ([3]; day 15): 2.54 and 2.22 and 1.31 and 1.33 and 1.65 and 2.45 and 1.18
- body weight ([3]; day 16): 153 g and 142 g and 136 g and 152 g and 141 g and 145 g and 147 g and 160 g
- body weight ([3]; day 17): 156 g and 147 g and 138 g and 151 g and 142 g and 146 g (2×) and 163 g
- clinical scores ([3]; day 17): 3 and 2 (2×) and 1.8 and 1.5 and 2.3 and 1.3 and 0.3
- Hind paw volume ([3]; day 17): 2.5 and 2.45 and 2.08 and 1.17 and 2.21 and 1.73 and 2.16 and 0.94
- body weight ([3]; day 18): 155 g and 148 g (3×) and 141 g and 151 g and 143 g and 164 g
- body weight ([3]; day 19): 160 g and 151 g and 144 g and 159 g and 145 g and 153 g and 154 g and 166 g
- clinical scores ([3]; day 19): 2.8 and 2 and 1.3 (2×) and 0.3 and 1.5 and 1 and 0
- Hind paw volume ([3]; day 19): 2.81 and 2.85 and 1.96 and 1.46 and 2.31 and 1.83 and 1.42
- body weight ([3]; day 20): 159 g and 150 g and 136 g and 160 g and 145 g and 152 g and 153 g and 165 g
- body weight ([3]; day 21): 161 g and 150 g and 148 g and 162 g
- clinical scores ([3]; day 21): 2 and 1.5 (2×) and 1.3 (2×) and 0 (2×) and 1
- Hind paw volume ([3]; day 21): 2.49 and 2.2 and 2.17 and 1.18 and 1.96 and 1.22
- clinical scores ([3]; day 23): 3 and 1 (4×) and 6 and 0.5 and 0
- Hind paw volume ([3]; day 23): 2.74 and 1.9 and 1.91 and 1.23 and 1.17 and 1.64 and 1.92 and 1.18
